Data published in patent publication USRE47689E1, “Compounds for treating spinal muscular atrophy” (PTC Therapeutics, Inc., priority 2011, dated 2019).
Values belong to the compound of their own block, whether it stands above or below them.

Experiments:
Smn protein = Smn protein assay in cultured cells (SMN HTRF); type: cell-based, human; details: 48 hours; for maximum fold (Fold) increase of Smn protein: SMA patient fibroblast cells, 7-point concentration data, fold increase relative to vehicle control (SMN HTRF); for EC1.5x (concentration giving 1.5-fold Smn protein increase): SMA Type 1 patient fibroblast cells (GM03813), 7-point concentration curve, SMN HTRF, concentration producing 1.5 times Smn protein vs DMSO vehicle control, read-out: EC1.5x for Smn protein expression
Outline: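 Lysates in RIPA with protease inhibitors are incubated overnight at room temperature with HTRF anti-SMN antibodies. EC1.5x is derived from fold increase in ΔF over vehicle.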

[1] = tested on: SMN2 minigene (full length SMN2 minigene mRNA containing SMN2 exon 7); test: SMN2 minigene mRNA splicing RT-qPCR assay in cultured cells; type: cell-based, human; details: Homo sapiens, HEK293-H; HEK293H cells stably transfected with SMN2-A minigene; 24 hours; 7-point concentration curve; 1.5-fold relative to vehicle-treated cells; read-out: EC1.5x for production of full length SMN2 mRNA
Outline: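 HEK293H cells stably carrying the SMN2-A minigene treated 24 h at 37° C with compound (DMSO, 200× stock), then lysed. Multiplex RT-qPCR (SMN primers 0.4 μM final; 40 cycles) measures full-length exon 7-containing minigene mRNA, normalized to GAPDH and to vehicle; EC1.5x derived and binned by stars.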

SMILES: Cc1cn2cc(-c3cc4ccc(OCCN5CCCC5)cc4oc3=O)nc2c(C)n1 [Cpd 918, 3-(6,8-dimethylimidazo[1,2-a]pyrazin-2-yl)-7-[2-(pyrrolidin-1-yl)ethoxy]-2H-chromen-2-one]
melting point: 201 to 203 °C
EC1.5x (concentration giving 1.5-fold Smn protein increase) (Smn protein): 300 to 1000 nM
maximum fold (Fold) increase of Smn protein (Smn protein): **** (fold increase between >1.5 and ≤1.65)
EC (1.5-fold) [1]: < 0.1 µM

SMILES: Cc1cn2cc(-c3cc4ccc(C5CCN(C6CCC6)CC5)cc4oc3=O)nc2c(C)n1 [Compound 821, 7-(1-cyclobutylpiperidin-4-yl)-3-(6,8-dimethylimidazo[1,2-a]pyrazin-2-yl)-2H-chromen-2-one]
melting point: 200 to 205 °C
EC1.5x (concentration giving 1.5-fold Smn protein increase) (Smn protein): < 300 nM
maximum fold (Fold) increase of Smn protein (Smn protein): ***** (fold increase >1.65)
EC (1.5-fold) [1]: < 0.1 µM

SMILES: CCN(CC)CCCCc1ccc2cc(-c3cn4cc(C)nc(C)c4n3)c(=O)oc2c1 [Compound 970, 7-[4-(diethylamino)butyl]-3-(6,8-dimethylimidazo[1,2-a]pyrazin-2-yl)-2H-chromen-2-one]
melting point: 212 to 216 °C
EC1.5x (concentration giving 1.5-fold Smn protein increase) (Smn protein): 300 to 1000 nM
maximum fold (Fold) increase of Smn protein (Smn protein): ***** (fold increase >1.65)
EC (1.5-fold) [1]: 0.3 to 1 µM

SMILES: Cc1cnc2nc(-c3cc4ccc(N5C[C@@H](C)N[C@@H](C)C5)cc4oc3=O)cn2c1 [Compound 243, 7-[(3R,5S)-3,5-dimethylpiperazin-1-yl]-3-(6-methylimidazo[1,2-a]pyrimidin-2-yl)-2H-chromen-2-one]
melting point: 308 to 310 °C
EC1.5x (concentration giving 1.5-fold Smn protein increase) (Smn protein): 3000 to 10000 nM
maximum fold (Fold) increase of Smn protein (Smn protein): ** (fold increase between >1.2 and ≤1.35)
EC (1.5-fold) [1]: 0.3 to 1 µM

SMILES: Cc1cn2cc(-c3cc4ccc(N5CCN(C6COC6)CC5)cc4oc3=O)nc2cn1 [Compound 839, 3-(6-methylimidazo[1,2-a]pyrazin-2-yl)-7-[4-(oxetan-3-yl)piperazin-1-yl]-2H-chromen-2-one]
melting point: 273 to 276 °C
EC1.5x (concentration giving 1.5-fold Smn protein increase) (Smn protein): 300 to 1000 nM
maximum fold (Fold) increase of Smn protein (Smn protein): **** (fold increase between >1.5 and ≤1.65)
EC (1.5-fold) [1]: 0.1 to 0.3 µM

SMILES: Cc1cn2cc(-c3cc4ccc(CCCNCc5ccncc5)cc4oc3=O)nc2c(C)n1 [Compound 936, 3-(6,8-dimethylimidazo[1,2-a]pyrazin-2-yl)-7-{3-[(pyridin-4-ylmethyl)amino]propyl}-2H-chromen-2-one]
melting point: 155 to 159 °C
EC1.5x (concentration giving 1.5-fold Smn protein increase) (Smn protein): < 300 nM
maximum fold (Fold) increase of Smn protein (Smn protein): ***** (fold increase >1.65)
EC (1.5-fold) [1]: < 0.1 µM

SMILES: Cc1cn2cc(-c3cc4ccc(N5CCN(C6CCC6)CC5)cc4oc3=O)nc2cn1 [Compound 838, 7-(4-cyclobutylpiperazin-1-yl)-3-(6-methylimidazo[1,2-a]pyrazin-2-yl)-2H-chromen-2-one]
melting point: 268 to 274 °C
EC1.5x (concentration giving 1.5-fold Smn protein increase) (Smn protein): < 300 nM
maximum fold (Fold) increase of Smn protein (Smn protein): ***** (fold increase >1.65)
EC (1.5-fold) [1]: < 0.1 µM

SMILES: Cc1csc(-c2cc3ccc(N4CCNC(C)(C)C4)cc3oc2=O)n1 [Compound 301, 7-(3,3-dimethylpiperazin-1-yl)-3-(4-methyl-1,3-thiazol-2-yl)-2H-chromen-2-one]
melting point: 204 to 209 °C
maximum fold (Fold) increase of Smn protein (Smn protein): * (maximum fold increase of ≤1.2)
EC (1.5-fold) [1]: 1 to 3 µM

The next lines start with results.

melting point: 212 to 218 °C
SMILES: Cc1nc(Cl)cn2cc(-c3cc4ccc(N5CCCN(C)CC5)cc4oc3=O)nc12 [Cpd 712, 3-(6-chloro-8-methylimidazo[1,2-a]pyrazin-2-yl)-7-(4-methyl-1,4-diazepan-1-yl)-2H-chromen-2-one]
maximum fold (Fold) increase of Smn protein (Smn protein): ** (fold increase between >1.2 and ≤1.35)
EC (1.5-fold) [1]: < 0.1 µM

melting point: 188 to 191 °C
SMILES: Cc1cn2cc(-c3cc4ccc(N5CCCNCC5)cc4oc3=O)nc2s1 [Compound 233, 7-(1,4-diazepan-1-yl)-3-(2-methylimidazo[2,1-b][1,3]thiazol-6-yl)-2H-chromen-2-one]
maximum fold (Fold) increase of Smn protein (Smn protein): *** (fold increase between >1.35 and ≤1.5)
EC (1.5-fold) [1]: 0.1 to 0.3 µM

melting point: 252 to 262 °C
SMILES: Cc1ccn2cc(-c3cc4ccc(N5CCN(C)CC5)cc4oc3=O)nc2c1 [Compound 134, 3-(7-methylimidazo[1,2-a]pyridin-2-yl)-7-(4-methylpiperazin-1-yl)-2H-chromen-2-one]
EC1.5x (concentration giving 1.5-fold Smn protein increase) (Smn protein): 1000 to 3000 nM
maximum fold (Fold) increase of Smn protein (Smn protein): *** (fold increase between >1.35 and ≤1.5)
EC (1.5-fold) [1]: 0.3 to 1 µM

melting point: 158 to 160 °C
SMILES: O=c1oc2cc(N3CCNCC3)ccc2cc1-c1cccc(C(F)(F)F)n1 [Compound 90, 7-(piperazin-1-yl)-3-[6-(trifluoromethyl)pyridin-2-yl]-2H-chromen-2-one]
maximum fold (Fold) increase of Smn protein (Smn protein): *** (fold increase between >1.35 and ≤1.5)
EC (1.5-fold) [1]: 0.3 to 1 µM

melting point: 143 to 145 °C
SMILES: C[C@H]1CN(c2ccc3cc(-c4ccc(F)c(Cl)c4)c(=O)oc3c2)CCN1 [Compound 485, 3-(3-chloro-4-fluorophenyl)-7-[(3S)-3-methylpiperazin-1-yl]-2H-chromen-2-one]
maximum fold (Fold) increase of Smn protein (Smn protein): * (maximum fold increase of ≤1.2)
EC (1.5-fold) [1]: 1 to 3 µM

melting point: 223 to 233 °C
SMILES: Cc1cc(F)cn2cc(-c3cc4ccc(N5CCN(C)CC5)cc4oc3=O)nc12 [Compound 329, 3-(6-fluoro-8-methylimidazo[1,2-a]pyridin-2-yl)-7-(4-methylpiperazin-1-yl)-2H-chromen-2-one]
maximum fold (Fold) increase of Smn protein (Smn protein): * (maximum fold increase of ≤1.2)
EC (1.5-fold) [1]: 0.3 to 1 µM

melting point: 201 to 203 °C
SMILES: Cn1cc(-c2cc3ccc(N4CCNCC4)cc3oc2=O)c2ccccc21 [Compound 258, 3-(1-methyl-1H-indol-3-yl)-7-(piperazin-1-yl)-2H-chromen-2-one]
maximum fold (Fold) increase of Smn protein (Smn protein): * (maximum fold increase of ≤1.2)
EC (1.5-fold) [1]: 0.3 to 1 µM

melting point: 264 to 266 °C
SMILES: Cc1nccn2cc(-c3cc4ccc(N5CCNCC5)cc4oc3=O)cc12 [Compound 555, 3-(1-methylpyrrolo[1,2-a]pyrazin-7-yl)-7-(piperazin-1-yl)-2H-chromen-2-one]
EC1.5x (concentration giving 1.5-fold Smn protein increase) (Smn protein): < 300 nM
maximum fold (Fold) increase of Smn protein (Smn protein): **** (fold increase between >1.5 and ≤1.65)
EC (1.5-fold) [1]: 0.1 to 0.3 µM

melting point: 173 to 176 °C
SMILES: Cc1cn2cc(-c3cc4ccc(N5C[C@@H](O)[C@H](N(C)C)C5)cc4oc3=O)cc2c(C)n1 [Compound 734, 7-[(3R,4R)-3-(dimethylamino)-4-hydroxypyrrolidin-1-yl]-3-(1,3-dimethylpyrrolo[1,2-a]pyrazin-7-yl)-2H-chromen-2-one]
EC1.5x (concentration giving 1.5-fold Smn protein increase) (Smn protein): < 300 nM
maximum fold (Fold) increase of Smn protein (Smn protein): **** (fold increase between >1.5 and ≤1.65)
EC (1.5-fold) [1]: < 0.1 µM

melting point: 198 to 208 °C
SMILES: CCc1cc(C)cn2cc(-c3cc4ccc(N5CCNCC5)cc4oc3=O)nc12 [Compound 334, 3-(8-ethyl-6-methylimidazo[1,2-a]pyridin-2-yl)-7-(piperazin-1-yl)-2H-chromen-2-one]
maximum fold (Fold) increase of Smn protein (Smn protein): * (maximum fold increase of ≤1.2)
EC (1.5-fold) [1]: 0.1 to 0.3 µM

melting point: 289 to 292 °C
SMILES: CN1CCCN(c2ccc3cc(-c4cn5cc(Cl)cnc5n4)c(=O)oc3c2)CC1 [Compound 337, 3-(6-chloroimidazo[1,2-a]pyrimidin-2-yl)-7-(4-methyl-1,4-diazepan-1-yl)-2H-chromen-2-one]
maximum fold (Fold) increase of Smn protein (Smn protein): * (maximum fold increase of ≤1.2)
EC (1.5-fold) [1]: 1 to 3 µM
